# Reference: patent US7838496B2, “Template-fixed peptidomimetics as medicaments against HIV and cancer” (Polyphor AG/Ltd., priority 2003, dated 2010)
# Where a SMILES comes first, the peptide text is derived from it. Bridges are numbered along the chain shown (N, C = ends). [ ]: non-standard residue; d: D form. Phe(4-NH2) = Nc1ccc(C[C@H](N)C(=O)O)cc1; 2Nal = N[C@@H](Cc1ccc2ccccc2c1)C(=O)O; Cit = NC(=O)NCCC[C@H](N)C(=O)O; Nlys = NCCCCNCC(=O)O
# What was measured:
# CCRF-CEM cells = CCRF-CEM cells (Homo sapiens, UniProt P61073); settings: read-out: IC50 (μM) Cell migration assay; CCRF-CEM cells migrating to 1 nM SDF-1, 4 hours
# CCRF-CEM cells, sequence (P61073 whole entry): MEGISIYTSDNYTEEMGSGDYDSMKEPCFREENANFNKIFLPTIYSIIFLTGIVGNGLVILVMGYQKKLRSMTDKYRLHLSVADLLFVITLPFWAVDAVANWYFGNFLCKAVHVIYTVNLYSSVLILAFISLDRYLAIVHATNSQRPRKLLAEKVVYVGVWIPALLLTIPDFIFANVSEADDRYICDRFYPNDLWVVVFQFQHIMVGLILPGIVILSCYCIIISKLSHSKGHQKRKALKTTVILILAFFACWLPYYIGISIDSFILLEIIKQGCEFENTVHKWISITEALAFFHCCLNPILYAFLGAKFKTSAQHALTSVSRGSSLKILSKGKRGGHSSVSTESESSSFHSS
# Procedure: BELA cells and CCRF-CEM cells were maintained in RPMI1640 plus 5% FBS, Pen/Strept and 2 mM L-Glutamine. […] All cell lines were grown at 37° C. at 5% CO2. Cell media, media supplements, PBS-buffer, HEPES, Pen/Strept., L-Glutamine and sera were purchased from Gibco (Pailsey, UK). All fine chemicals came from Merck (D)armstadt, Germany).
# Chemotactic Assay (Cell Migration Assay)
# The chemotactic response of CCRF-CEM cells to a gradient of stromal cell-derived factor 1 a (SDF-1) was measured using disposable assay plates from Neuroprobe (5 μ pore size) (Gaithersburg, Md.), according to the manufacturer's directions and references therein [especially ref. 8, below]. Briefly, one 175 cm^2 flask was washed once with Dubecco's phosphate buffered saline (DPBS), and trypsinized for 10 minutes or until cells had lifted. The trypsin was neutralized by the addition of fresh medium containing serum and the cells were pelleted, washed once in DPBS, and resuspended at 1-0.5×10^7 cells/ml in RPM!+0.5% bovine serum albumin (BSA). 451 μl of cell suspension were mixed with 5μ of 10-fold concentrated PEM peptide diluted in the same assay medium. 35 μl of this mixture were applied to the top of the assay filter. The cells were allowed to migrate (at 37°) into the bottom chamber of the assay plate containing 1 nM SDF-1. After 4 hours, the filter was removed and MTT was added to the migrated cells to a final concentration of 0.5 mg/ml, and incubated for a further 4 hours. After labeling with MTT, all medium was removed and 100 μl of isopropanol+10 mM HCl were added to the cells. The optical absorbance at 595 nm (ABS595) was read using a Tecan Genios plate reader with Magellan software. The number of cells migrated was determined by comparing ABS595 values against a standard curve generated with a known number of cells in the assay plate and were plotted against SDF-1 concentration to obtain a sigmoidal curve and to determine the IC50 values. The values for IC50 were determined using the Trendline function in Microsoft Excel by fitting a logarithmic curve to the averaged datapoints.
# [1] = system: human red blood cells (hRBC); type: cell-based; settings: red cells of human, 1 h
# Procedure: The peptides were tested for their hemolytic activity against human red blood cells (hRBC). Fresh hRBC were washed three times with phosphate buffered saline (PBS) by centrifugation for 10 min at 2000×g. Peptides at a concentration of 100 μM were incubated with 20% v/v hRBC for 1 hour at 37-C. The final erythrocyte concentration was approximately 0.9×10^9 cells per mL. A value of 0% resp. 100% cell lysis was determined by incubation of the hRBC in the presence of PBS alone and respectively 0.1% Triton X-100 in H2O. The samples were centrifuged and the supernatant was 20-fold diluted in PBS buffer and the optical density (OD) of the sample at […] was measured. The 100% lyses value (OD540H2O) gave an OD540 of approximately 1.3-1.8. Percent hemolysis was calculated as follows: (OD540peptide/OD540H2O)×100%.
# in vitro = type: cell-based
# Procedure: The cytotoxicity of the peptides to HELA cells (Acc57) and COS-7 cells (CRL-1651) was determined using the MTl reduction assay [see ref. 6 and 7, below]. Briefly the method was as follows: HELA cells and COS-7 cells were seeded at 7.0·10^3 and, respectively, 4.5·10^3 cells per well and grown in 96-well microtiter plates for 24 hours at 37° C. at 5% CO2. At this point, time zero (Tz) was determined by MTT reduction (see below). The supernatant of the remaining wells was discarded and fresh medium and the peptides in serial dilutions of 12.5, 25 and 50 μM were pipeted into the wells. Each peptide concentration was assayed in triplicate. Incubation of the cells was continued for 48 hours at 37° C. at 5% CO2. Wells were then washed once with PBS and subsequently 100 μl MTT reagent (0.5 mg/mL in medium RPMI1640 and, respectively, DMEM) was added to the wells. This was incubated at 37° C. for 2 hours and subsequently the medium was aspirated and 100 μl isopropanol was added to each well. The absorbance at 595 nm of the solubilized product was measured (OD595peptide). For each concentration averages were calculated from triplicates. The percentage of growth was calculated as follows: (OD595peptide-OD595Tz-OD595Empty well)/(OD595Tz-OD595Empty well)×100% and was plotted for each peptide concentration.
# The LC 50 values (Lethal Concentration, defined as the concentration that kills 50% of the cells) were determined for each peptide by using the trend line function of EXCEL (Microsoft Office 2000) for the concentrations (50, 25, 12.5 and 0 μM), the corresponding growth percentages and the value −50, (=TREND(C50:C0,%50:%0,−50))
# (§1) All fine chemicals came from Merck (D)armstadt, Germany).
# [2] = system: 'CCR5' cells / Hut/4-3 cells co-cultivation; test: FIGS-Assay (co-cultivated cell cultures, beta-galactosidase/ONPG read-out); type: cell-based; settings: at 200 nM; 48 hours of co-cultivation
# Procedure: The assay was performed according to ref. 5, below. Stock dilutions of the peptides (10 mM) were prepared by dissolving in 10 mM Tris-HCl at room temperature. Stock solutions were kept at +4° C., light protected. Working dilutions were prepared extemporaneously by serial dilution in Phosphate Buffered Saline (PBS) and added in a final volume of 10 μL directly to the cell cultures. After 48 hours of co-cultivation the cultures were rinsed with PBS and then exposed to glutaraldehyde/formaldehyde (0.2%/2%) in PBS for five minutes. For photometric quantification the fixed cultures were subsequently incubated with ortho-nitro-phenyl-galactopyranoside (ONPG) as a O-galactosidase substrate, which was enzymatically converted into the chromophore ortho-nitrophenol (ONP). The read out is directly obtained by measuring optical density of wells at 405 nm in an IEMS 96 well-plate reader.
# as §1
# CXCR4 = molecular target: T1, CXCR4 (Homo sapiens, UniProt P61073); test: Ca2+ assay: CXCR4 antagonizing activity of the peptides; type: cell-based; settings: CXCR4 transfected pre-B cells, Fura-2 fluorescence, 37° C.
# T1 construct: expressed in transfected cells
# T1 sequence (P61073 whole entry): as above
# Procedure: 2.2. Ca^2+− assay: CXCR4Antagonizing Activity of the Peptides
# 3-4 Mio CXCR4 transfected pre-B cells [see references 1, 2 and 3, below] per measurement were resuspended in 200 μl MSB (20 mM 4-(2-Hyddroxyethyl)-piperazin-1-ethansulfonic acid (HEPES), 136 mM NaCl, 4.8 mM KCl and 1 mM CaCl2) containing 5 mM D-Glucose and were loaded with 0.75 μl of 1 mM Fura-2-acetoxymethylester for 17 minutes at 37° C. The cells were washed free from Fura-2-AM with a platelet centrifuge and resuspended in 800 R1 MSB containing 5 mM D-Glucose. The peptides to be administered were diluted to a 100 fold end concentration in MSB/0.2% PPL, and 8 pl were injected. [Ca^2+ ]i-dependent fluorescence change in response to single or sequential stimulation with the peptide was recorded with a fluorimeter at an excitation wavelength of 340 nm and an end emission wavelength of 510 nm [see ref. 4, below]. Measurements were done under continuous stirring at 37° C. The signal intension was calibrated with 3 mM4 CaCl2/1 nM lonomycin (maximal fura-2-acetoxymethylester saturation) and […] MnCl2 (minimal Fura-2-acetoxymethylester saturation) and [Ca^2+]i-changes are presented in % fura-2-acetoxymethylester saturation.
# MSB: 20 nmM HEPES, 136 mM NaCl, 4.8 mM KCl, 1 mM CaCl2.2H2O, pH 7.4; Osmolarity: 310 mOsm adjusted with NaOH or HCl, adjusted with dH2O or PBS.
# MSB plus: 5 mM D-glucose in MSB (50 mg/50 mL).
# Fura 2-acetoxymethylester: 1 mM stock solution in dimethylsulfoxide.
compound,measurement,setting,value
N=C(N)NCCC[C@H](NC(=O)[C@@H]1CSSC[C@H](NC(=O)[C@H](Cc2ccc3ccccc3c2)NC(=O)[C@H](CCCNC(=N)N)NC(=O)[C@@H](N)CCCNC(=N)N)C(=O)N[C@@H](Cc2ccc(O)cc2)C(=O)N[C@@H](CCCNC(N)=O)C(=O)N[C@@H](CCCCN)C(=O)N2CCC[C@@H]2C(=O)N2CCC[C@H]2C(=O)N[C@@H](Cc2ccc(O)cc2)C(=O)N[C@@H](CCCNC(=N)N)C(=O)N[C@@H](CCCNC(N)=O)C(=O)N1)C(N)=O [Example 7] (H-RR[2Nal]CY[Cit]K[dP]PYR[Cit]CR-NH2; disulfide 4-13; N-terminus assumed),IC50,CCRF-CEM cells,0.55 µM
same,Hemolysis at 100 μM,[1],0.3%
same,CC50,in vitro,56 µM
CC(=O)N[C@@H](CCCNC(=N)N)C(=O)N[C@@H](CCCNC(=N)N)C(=O)N[C@@H](Cc1ccc2ccccc2c1)C(=O)N[C@H]1CSSC[C@@H](C(=O)N[C@@H](CCCNC(=N)N)C(N)=O)NC(=O)[C@H](CCCNC(N)=O)NC(=O)[C@H](CCCNC(=N)N)NC(=O)[C@H](Cc2ccc(O)cc2)NC(=O)[C@@H]2CCCN2C(=O)[C@H]2CCCN2C(=O)[C@H](CCCCN)NC(=O)[C@H](CCCNC(N)=O)NC(=O)[C@H](Cc2ccc(O)cc2)NC1=O [Example 8] (Ac-RR[2Nal]CY[Cit]K[dP]PYR[Cit]CR-NH2; disulfide 4-13),IC50,CCRF-CEM cells,5 µM
same,Hemolysis at 100 μM,[1],0.1%
same,CC50 at 48 h,in vitro,226 µM
same,FIGS % inhibition at 200 nM,[2],90.6%
same,IC50,CXCR4,13.9 nM
N=C(N)NCCC[C@@H](N)C(=O)N[C@@H](CCCNC(=N)N)C(=O)N[C@@H](Cc1ccc2ccccc2c1)C(=O)N[C@H]1CSSC[C@@H](C(=O)N[C@@H](CCCNC(=N)N)C(N)=O)NC(=O)[C@H](CCCNC(N)=O)NC(=O)[C@H](CCCNC(=N)N)NC(=O)[C@H](Cc2ccc(O)cc2)NC(=O)[C@@H]2CCCN2C(=O)[C@H]2CCCN2C(=O)[C@H](CCCCN)NC(=O)[C@H](CCCNC(N)=O)NC(=O)[C@H](Cc2ccc(O)cc2)NC1=O [Example 10] (H-[dR]R[2Nal]CY[Cit]K[dP]PYR[Cit]CR-NH2; disulfide 4-13),IC50,CCRF-CEM cells,0.55 µM
same,Hemolysis at 100 μM,[1],0.6%
same,CC50 at 48 h,in vitro,118 µM
same,FIGS % inhibition at 200 nM,[2],82.0%
same,IC50,CXCR4,21.5 nM
N=C(N)NCCC[C@H](NC(=O)[C@@H]1CSSC[C@H](NC(=O)[C@H](Cc2ccc(N)cc2)NC(=O)[C@H](CCCNC(=N)N)NC(=O)[C@@H](N)CCCNC(=N)N)C(=O)N[C@@H](Cc2ccc(O)cc2)C(=O)N[C@@H](CCCNC(N)=O)C(=O)N[C@@H](CCCCN)C(=O)N2CCC[C@@H]2C(=O)N2CCC[C@H]2C(=O)N[C@@H](Cc2ccc(O)cc2)C(=O)N[C@@H](CCCNC(=N)N)C(=O)N[C@@H](CCCNC(N)=O)C(=O)N1)C(N)=O [Example 12] (H-RR[Phe(4-NH2)]CY[Cit]K[dP]PYR[Cit]CR-NH2; disulfide 4-13),IC50,CCRF-CEM cells,5 µM
same,Hemolysis at 100 μM,[1],0.1%
same,CC50 at 48 h,in vitro,226 µM
same,FIGS % inhibition at 200 nM,[2],71.3%
same,IC50,CXCR4,13.9 nM
N=C(N)NCCC[C@H](NC(=O)[C@@H]1CSSC[C@H](NC(=O)[C@H](Cc2ccc3ccccc3c2)NC(=O)[C@H](CCCNC(=N)N)NC(=O)CNCCCCN)C(=O)N[C@@H](Cc2ccc(O)cc2)C(=O)N[C@@H](CCCNC(N)=O)C(=O)N[C@@H](CCCCN)C(=O)N2CCC[C@@H]2C(=O)N2CCC[C@H]2C(=O)N[C@@H](Cc2ccc(O)cc2)C(=O)N[C@@H](CCCNC(=N)N)C(=O)N[C@@H](CCCNC(N)=O)C(=O)N1)C(N)=O [Example 16] (H-[Nlys]R[2Nal]CY[Cit]K[dP]PYR[Cit]CR-NH2; disulfide 4-13),IC50,CCRF-CEM cells,1.04 µM
